These results are taken from patent publication US11634389B2 (priority 2018, dated 2023).

Structures are written as SMILES.

In this assay the test system is Monilinia fructicola isolate. Nature of the assay: Radial mycelial growth on SDHI-amended PDA, Monilinia fructicola isolate (FIG. 4). It counts as cell-based. The conditions noted are these: versus positive control fluxapyroxad. As to the method: FIG. 4 depicts the fungicidal performance of a compound according to the disclosure (“1831”) against Monilinia fructicola isolate against a blank control, as compared to fluxapyroxad, a commercially available fungicide (“fluxa”).
The inhibitory effects of these SDHI compounds were evaluated against the various pathogenic isolates grown on half-strength potato dextrose agar (PDA) amended with a given SDHI. SDHIs were formulated as 10,000 ppm stocks in DMSO. Inoculated media were prepared using a ratio of 12 g potato dextrose broth powder to 15 g agar to 1 L of deionized water. Upon autoclaving and cooling to 55° C., the media were inoculated with the SDHI compound of interest (1 mL of 10,000 ppm stock in 1 L media) then poured into plates. This method represented a 10 ppm trial for the SDHI compound. Mycelial plugs were cut from the leading growth of active fungal colonies (supported on full PDA media) and placed mycelia-down in the center of a plate. After an appropriate number of days (3-14 days, depending on pathogen), the radial growth was measured (average of three plates), and reported as the radial mycelial growth or as radial mycelial growth relative to a control. An analogous procedure was employed to determine the EC50 value by varying the concentration of the initial SDHI compound DMSO stock. […]

For `Cn1ncc(C(=O)NC23CCC(c4ccccc42)C3(C)C)c1Cl` (stereo not shown) [compound 1831], the “radial growth relative to that seen with fluxapyroxad” value is given as “about half”.
